Experiments:
Details in all cases: 72 h
Caco-2 [1] = test: cell viability relative to DMSO; higher = less toxic
Calu-3 [2] = test: as above
HepG2 [3] = test: as above
U2OS [4] = test: as above
Vero E6 [5] = test: as above
Calu-3 [6] = test: relative viability EC50 (midpoint between 100% and the lowest measured viability); higher = less toxic
HepG2 [7] = test: as above
Caco-2 [8] = test: drug sensitivity score (DSS) for viability; higher = more toxic; extreme values may be limits of the assay
Calu-3 [9] = test: as above
HepG2 [10] = test: as above
U2OS [11] = test: as above
Vero E6 [12] = test: as above
Caco-2 [13] = test: relative viability EC50 (midpoint between 100% and the lowest measured viability); higher = less toxic
U2OS [14] = test: as above

Row | SMILES | cell viability (Caco-2 [1]; 1 nM) [%] | cell viability (Caco-2 [1]; 10 nM) [%] | cell viability (Caco-2 [1]; 100 nM) [%] | cell viability (Caco-2 [1]; 1000 nM) [%] | cell viability (Caco-2 [1]; 10000 nM) [%] | cell viability (Calu-3 [2]; 1 nM) [%] | cell viability (Calu-3 [2]; 10 nM) [%] | cell viability (Calu-3 [2]; 100 nM) [%] | cell viability (Calu-3 [2]; 1000 nM) [%] | cell viability (Calu-3 [2]; 10000 nM) [%] | cell viability (HepG2 [3]; 1 nM) [%] | cell viability (HepG2 [3]; 10 nM) [%] | cell viability (HepG2 [3]; 100 nM) [%] | cell viability (HepG2 [3]; 1000 nM) [%] | cell viability (HepG2 [3]; 10000 nM) [%] | cell viability (U2OS [4]; 1 nM) [%] | cell viability (U2OS [4]; 10 nM) [%] | cell viability (U2OS [4]; 100 nM) [%] | cell viability (U2OS [4]; 1000 nM) [%] | cell viability (U2OS [4]; 10000 nM) [%] | cell viability (Vero E6 [5]; 1 nM) [%] | cell viability (Vero E6 [5]; 10 nM) [%] | cell viability (Vero E6 [5]; 100 nM) [%] | cell viability (Vero E6 [5]; 1000 nM) [%] | cell viability (Vero E6 [5]; 10000 nM) [%] | relative viability EC50 (Calu-3 [6]) [µM] | relative viability EC50 (HepG2 [7]) [µM] | drug sensitivity score (Caco-2 [8]) | drug sensitivity score (Calu-3 [9]) | drug sensitivity score (HepG2 [10]) | drug sensitivity score (U2OS [11]) | drug sensitivity score (Vero E6 [12]) | relative viability EC50 (Caco-2 [13]) [µM] | relative viability EC50 (U2OS [14]) [µM]
1 | Cc1cc(N2CCOCC2)ccc1Nc1nc(NC2CCCCC2)c2nc[nH]c2n1 | 102 | 104 | 101 | 88.5 | 69.4 | 100 | 98 | 98.6 | 98.4 | 85 | 99.1 | 107 | 98 | 51.8 | 43.5 | 97 | 104 | 101 | 68 | 55.4 | 96.9 | 99.6 | 98.2 | 60.1 | 60.8 | > 10 | 0.455 | 2.9 | 0.4 | 9.1 | 6.1 | 7.4 |  | 
2 | Cc1cccc(NC(=O)CN2CCC(c3ccccn3)CC2)c1 | 98.7 | 101 | 95 | 91.3 | 93.9 | 110 | 101 | 109 | 108 | 98.1 | 108 | 103 | 97 | 102 | 101 | 98.9 | 97.9 | 94.7 | 98.1 | 93.9 |  |  |  |  |  | > 10 | > 10 | 0 | 0 | 0 | 0 |  | > 10 | > 10
3 | Cn1cc(-c2ccncc2)c(-c2ccc(OCc3ccc4ccccc4n3)cc2)n1 | 91.1 | 106 | 90.5 | 106 | 67.2 | 104 | 105 | 103 | 98.9 | 77.1 | 105 | 99.2 | 108 | 95.6 | 91.5 | 94 | 101 | 96.7 | 94.6 | 87.5 |  |  |  |  |  | > 10 | > 10 | 1.2 | 0.9 | 0 | 0 |  |  | > 10
4 | NC(=O)[C@@H](CC1CC1)[C@@H](CCC(F)(F)F)C(=O)N[C@H]1N=C(c2ccccc2)c2cccc(F)c2NC1=O | 97.7 | 98.4 | 96.5 | 96.2 | 85.2 | 110 | 99.4 | 91.9 | 85.8 | 99.1 | 94.3 | 106 | 105 | 91.9 | 106 | 99 | 96.4 | 94.1 | 94.1 | 92.7 |  |  |  |  |  | > 10 | > 10 | 0.4 | 0 | 0 | 0 |  | > 10 | > 10
5 | N#C/C(=C\c1ccc(O)c(O)c1)C(=O)NCCCCc1ccccc1 [AG-556] | 94 | 94.2 | 101 | 101 | 50.1 | 95.7 | 101 | 102 | 110 | 98.7 | 93.3 | 101 | 97.8 | 108 | 71.1 | 98.5 | 99 | 94.7 | 99 | 75.8 | 95.8 | 95.6 | 100 | 95.9 | 62.5 | > 10 |  | 2.5 | 0 | 0.9 | 1 | 2.5 |  | > 10
6 | CC(C)(C)C1CCc2c(sc(NC(=O)c3ccco3)c2C(=O)O)C1 (stereo not given) [CaCCinh-A01] | 102 | 103 | 97.1 | 97.8 | 82.2 | 91.2 | 99.5 | 103 | 96.4 | 99.6 | 115 | 90.8 | 103 | 87.2 | 69.3 | 98.8 | 101 | 96.2 | 97.1 | 98 | 98.8 | 98.8 | 106 | 98.5 | 72.9 | > 10 |  | 0.7 | 0 | 3 | 0 | 1.3 | > 10 | > 10
7 | CC(C)(O)c1coc(S(=O)(=O)NC(=O)Nc2c3c(cc4c2CCC4)CCC3)c1 [MCC950] | 106 | 96.1 | 102 | 96.9 | 104 | 120 | 105 | 100 | 103 | 99.3 | 97.9 | 95.9 | 102 | 113 | 105 | 104 | 103 | 105 | 97.7 | 102 |  |  |  |  |  | > 10 | > 10 | 0 | 0 | 0 | 0 |  | > 10 | > 10
8 | Nc1ncnc2c1c(-c1cccc(OCc3ccccc3)c1)cn2[C@H]1C[C@@H](CN2CCC2)C1 [NVP-AEW541] | 99.8 | 97 | 94.5 | 80.8 | 45.1 | 112 | 103 | 99.4 | 93.3 | 57.2 | 96.4 | 93.6 | 92.4 | 68.1 | 32.3 | 98.1 | 97.9 | 106 | 86.6 | 52.5 | 100 | 102 | 99 | 92.9 | 69.6 |  | 1 | 5.2 | 3.3 | 7.4 | 4.5 | 2.4 | 1.4 | 
9 | CC(C)(C(=O)NCC(F)(F)C(F)(F)F)C(=O)N[C@@H]1C(=O)Nc2ccccc2-c2ccccc21 [RG4733] | 94.4 | 92.3 | 97.8 | 89.8 | 82.2 | 102 | 108 | 112 | 98.6 | 93.9 | 102 | 111 | 101 | 102 | 92.1 | 96.9 | 99.1 | 99.6 | 94.4 | 97.3 |  |  |  |  |  | > 10 | > 10 | 0.6 | 0 | 0 | 0 |  | > 10 | > 10
10 | COc1ccncc1C(=O)NC(=O)Nc1ccc(-c2ccccc2)c(C(F)(F)F)c1 [S1P1-agonist-III] | 100 | 90.6 | 95.5 | 99.1 | 87.8 | 110 | 97.5 | 93.2 | 99.2 | 91.1 | 95.3 | 104 | 95.5 | 107 | 97.1 | 106 | 107 | 101 | 98.4 | 98.2 |  |  |  |  |  | > 10 | > 10 | 0 | 0 | 0 | 0 |  | > 10 | > 10
11 | O=C(NCC(=O)N1CCCC1)Nc1ccc2cnccc2c1 [SGC-707] | 98.1 | 97 | 95.7 | 100 | 93.1 | 94.2 | 95.8 | 105 | 86.2 | 110 | 93.6 | 117 | 98.4 | 103 | 97.3 | 99.2 | 93 | 103 | 97.3 | 96.8 |  |  |  |  |  | > 10 | > 10 | 0 | 0 | 0 | 0 |  | > 10 | > 10
12 | O=C(O)COc1ccc(/C=C2\SC(=O)NC2=O)cc1 [TCS-3035] | 105 | 107 | 97.3 | 104 | 102 | 101 | 97.6 | 97.3 | 103 | 106 | 103 | 104 | 103 | 105 | 95.3 | 102 | 94.9 | 97.8 | 99.8 | 100 |  |  |  |  |  | > 10 | > 10 | 0 | 0 | 0 | 0 |  | > 10 | > 10
13 | NS(=O)(=O)c1ccc(NC(=O)Nc2ccc(F)cc2)cc1 [U-104] | 99.4 | 94.4 | 96.9 | 105 | 101 | 112 | 91.7 | 107 | 101 | 108 | 102 | 106 | 103 | 89.8 | 104 |  |  |  |  |  |  |  |  |  |  | > 10 | > 10 | 0 | 0 | 0 |  |  | > 10 | 
14 | CC(=O)N[C@@H](CC(C)C)C(=O)O [acetyl-l-leucine] | 95.7 | 103 | 85 | 80.3 | 96.6 |  |  |  |  |  | 95.8 | 99.2 | 98.4 | 88.3 | 94.7 | 101 | 99.9 | 95.2 | 101 | 96.2 |  |  |  |  |  |  | > 10 | 4.1 |  | 0 | 0 |  | > 10 | > 10
15 | CN(C)CCN1C(=O)c2cccc3cc(N)cc(c23)C1=O [amonafide] | 99.9 | 96.1 | 97.9 | 108 | 69.7 | 94.8 | 96.2 | 99.3 | 104 | 65.1 | 92.9 | 108 | 113 | 93.6 | 23.9 | 101 | 92.7 | 95 | 100 | 64.6 | 97.8 | 93.3 | 95.9 | 94.1 | 54.8 |  | 2.48 | 1 | 1.4 | 5.2 | 1.7 | 3.3 |  | 
